Data from US20240391923A1, “METHIONINE ADENOSYLTRANSFERASE 2A INHIBITOR FOR TREATING MTAP DELETION-TYPE CANCER” (SUZHOU GENHOUSE BIO CO., LTD., priority 2022, published 2024).
Where two headings read alike, the source gives them in different places.

How the values were obtained:
[1] = tested on: SDMA in HCT116-MTAP-knockout cell line; assay: Cell symmetric dimethylarginine (SDMA) test, In-cell Western, HCT116-MTAP-knockout; type: cell-based; details: Homo sapiens, 96 h
[2] = tested on: SDMA in human colon cancer cell line HCT116; assay: Cell symmetric dimethylarginine (SDMA) test, In-cell Western, HCT116 (MTAP wild-type); type: cell-based; details: Homo sapiens, HCT-116, 96 h
Outline: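 HCT116 cells treated 4 days at 37° C with compound, top concentration 6 μM, 1:4 dilutions, 6 points, versus DMSO. Fixed cells stained for SDMA with DRAQ5 normalisation; 800/700 nm ratio after background subtraction fitted by non-linear regression for IC50.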

DOHH-2 cell strain = assay: Tumor cell proliferation inhibition assay (CellTiter-Glo), DOHH-2; type: cell-based; details: Homo sapiens, 120 h, DOHH-2 cells, 5-day treatment
Protocol: After the HCT116-MTAP-knockout (−/−) cell strain, the HCT116-MTAP wild-type(+/+)-cell strain, the DOHH-2 cell strain, or the Hut-78 cell strain was treated with the test compound for 5 days, the ATP level was measured using a CellTiter-Glo kit of Promega to evaluate the inhibition of the test compound against the growth of the tumor cell strain.
In the present application, the HCT116-MTAP-knockout (−/−) cell strain, the HCT116-MTAP wild-type (+/+)-cell strain, the DOHH-2 cell strain, or the Hut-78 cell strain was seeded into a 96-well cell culture plate at an appropriate cell density. After 24 h, the cells were treated using the test compounds diluted 1:3 fold at the highest concentration of 10 μM for 10 gradients, and a DMSO treatment group was set up separately. The cells were cultured in a 37° C./5% CO2 incubator for 5 days.

[3] = molecular target: MAT2A recombinant protein (Homo sapiens, UniProt P31153); assay: MAT2A inhibitory activity (malachite green colorimetric enzyme assay); type: biochemical
Outline: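 Recombinant human MAT2A with L-methionine and ATP in 50 mM HEPES pH 7.5, 50 mM KCl, 10 mM MgCl2, 10 mM DTT, 60 min at room temperature. Phosphate released detected by malachite green reagent (15 min) at 630 nm. Ten-point 1:3 series from 1000 nM final; IC50 by variable-slope non-linear regression.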

[4] = tested on: HCT116-MTAP-knockout (−/−) cell strain; assay: Tumor cell proliferation inhibition assay (CellTiter-Glo), HCT116-MTAP-knockout (-/-); type: cell-based; details: Homo sapiens, 120 h, HCT116-MTAP-knockout (−/−) cells, 5-day treatment
Outline: (§1)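 Growth inhibition is evaluated from cellular ATP measured with CellTiter-Glo once cells have been treated for 5 days. Compounds are added 24 h after seeding as ten threefold dilutions starting at 10 μM, with a separate DMSO treatment group.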

[5] = tested on: HCT116-MTAP wild-type (+/+)-cell strain; assay: Tumor cell proliferation inhibition assay (CellTiter-Glo), HCT116-MTAP wild-type (+/+); type: cell-based; details: Homo sapiens, 120 h, HCT116-MTAP wild-type (+/+) cells, 5-day treatment
Outline: as §1

Hut-78 cell strain = assay: Tumor cell proliferation inhibition assay (CellTiter-Glo), Hut-78; type: cell-based; details: Homo sapiens, HuT78, 120 h, Hut-78 cells, 5-day treatment
Outline: as §1

[6] = Pharmacokinetic test in mice (IV and PO); type: in vivo; details: mouse, plasma, BALB/c mice; for half-life: read-out: T½ (converted)
[7] = IC50 score class, read-out: Cell 96 h SDMA Inhibition (HCT116-MTAP−/−) (score)
[8] = read-out: Cell 96 h SDMA Inhibition (HCT116-MTAP−/−)
[9] = IC50 score class, read-out: Cell 96 h SDMA Inhibition (HCT116-MTAP+/+) (score)
[10] = read-out: Cell 96 h SDMA inhibition (HCT116-MTAP+/+)
[11] = IC50 score, read-out: Tumor cell 5-day relative growth inhibition (DOHH-2) (nM), score
[12] = IC50 value, read-out: Tumor cell 5-day relative growth inhibition (DOHH-2)
[13] = IC50 score class, read-out: MAT2A Inhibition (score)
[14] = IC50 score, read-out: Tumor cell 5-day relative growth inhibition (HCT116-MTAP−/−) (nM), score
[15] = IC50 value, read-out: Tumor cell 5-day relative growth inhibition (HCT116-MTAP−/−)
[16] = IC50 score, read-out: Tumor cell 5-day relative growth inhibition (HCT116-MTAP+/+) (nM), score
[17] = IC50 value, read-out: Tumor cell 5-day relative growth inhibition (HCT116-MTAP+/+)
[18] = IC50 score, read-out: Tumor cell 5-day relative growth inhibition (Hut-78) (nM), score
[19] = IC50 value, read-out: Tumor cell 5-day relative growth inhibition (Hut-78)

Sequence of MAT2A recombinant protein (P31153 whole entry): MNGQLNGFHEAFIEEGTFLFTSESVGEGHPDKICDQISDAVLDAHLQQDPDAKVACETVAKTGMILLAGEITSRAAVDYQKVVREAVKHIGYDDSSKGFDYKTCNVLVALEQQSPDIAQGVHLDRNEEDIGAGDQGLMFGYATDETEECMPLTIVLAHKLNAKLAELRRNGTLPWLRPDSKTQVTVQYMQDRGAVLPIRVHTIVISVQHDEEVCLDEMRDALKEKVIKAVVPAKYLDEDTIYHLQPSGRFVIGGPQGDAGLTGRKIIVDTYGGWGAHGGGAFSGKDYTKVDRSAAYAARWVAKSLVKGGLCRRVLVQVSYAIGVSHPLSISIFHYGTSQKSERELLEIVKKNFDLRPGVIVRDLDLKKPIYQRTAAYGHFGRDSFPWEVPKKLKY

| Structure (SMILES) | IC50 [1, 7] [nM] | IC50 [1, 8] [nM] | IC50 [2, 9] [nM] | IC50 [2, 10] [nM] | IC50 (DOHH-2 cell strain; [11]) [nM] | IC50 (DOHH-2 cell strain; [12]) [nM] | IC50 [3, 13] [nM] | IC50 ([3]; read-out: MAT2A Inhibition) [nM] | other results |
| --- | --- | --- | --- | --- | --- | --- | --- | --- | --- |
| Cn1cc2c(n1)c(=O)n(-c1cccnc1)c1nc(C3CC3)ccc21 [Compound B71] | 200 to 1000 | 203 | 1000 to 3000 | 1270 | 500 to 2000 | 1290 | – | – | – |
| CCn1nc2c(=O)n(-c3cccnc3)c3cc(Cl)ccc3c2c1Cl [Compound B20] | 200 to 1000 | 521 | > 3000 | 5150 | ≥ 2000 | 2360 | < 100 | 37.2 | – |
| CCn1cc2c(n1)c(=O)n(-c1cccc(O)c1)c1cc(Cl)ccc21 [Compound B8] | 200 to 1000 | 271 | 1000 to 3000 | 2100 | 500 to 2000 | 1000 | – | – | – |
| Cn1nc2c(=O)n(-c3cccnc3)c3cc(Cl)ccc3c2c1C(F)F [Compound B27] | 1000 to 3000 | 1280 | > 3000 | > 3000 | ≥ 2000 | 11700 | < 100 | 77 | – |
| CCn1cc2c(n1)c(=O)n(Cc1c[nH]cn1)c1cc(Cl)ccc21 [Compound B18] | > 3000 | 8410 | – | – | ≥ 2000 | > 2000 | 100 to 1000 | 149 | – |
| Cc1c2c(nn1C)c(=O)n(-c1cccnc1)c1cc(Cl)ccc21 [Compound B16] | < 200 | 63.6 | 200 to 1000 | 636 | 500 to 2000 | 811 | < 100 | 26.8 | – |
| Cc1c2c(nn1C)c(=O)n(-c1cccnc1)c1nc(C(F)(F)F)ccc21 [Compound B198] | < 200 | 48.5 | 200 to 1000 | 567 | – | – | < 100 | 17.1 | IC50 [4, 14]: < 500 nM; IC50 [4, 15]: 31.5 nM; IC50 [5, 16]: 500 to 2000 nM; IC50 [5, 17]: 745 nM; IC50 (Hut-78 cell strain; [18]): < 500 nM; IC50 (Hut-78 cell strain; [19]): 40.2 nM; AUC ([6]; IV 2 mg/kg): 8.7 µM·h; clearance ([6]; IV 2 mg/kg): 10.7 mL/min/kg; bioavailability ([6]; IV 2 mg/kg, PO 10 mg/kg): 150%; half-life ([6]; IV 2 mg/kg): 40.9 min; Vd ([6]; IV 2 mg/kg, read-out: Vz): 0.6 L/kg; AUC ([6]; PO 10 mg/kg): 65.2 µM·h; half-life ([6]; PO 10 mg/kg): 55.1 min |
| CCn1cc2c(n1)c(=O)n(-c1cccc(C#N)c1)c1cc(Cl)ccc21 [Compound B9] | 200 to 1000 | 328 | 1000 to 3000 | 2350 | 500 to 2000 | 1090 | – | – | – |
| Cn1cc2c(n1)c(=O)n(-c1cccnc1)c1cc(C3CC3)ccc21 [Compound B70] | 200 to 1000 | 375 | 1000 to 3000 | 1550 | 500 to 2000 | 1930 | – | – | – |
| Cc1ncccc1-n1c(=O)c2nn(C)cc2c2ccc(C3CC3)cc21 [Compound B74] | < 200 | 19.3 | 200 to 1000 | 261 | < 500 | 340 | < 100 | 44.3 | – |
| O=c1c2nn(CCO)cc2c2ccc(Cl)cc2n1-c1cccnc1 [Compound B46] | 200 to 1000 | 236 | > 3000 | 19400 | ≥ 2000 | 6030 | – | – | – |
| COCCn1cc2c(n1)c(=O)n(-c1cccnc1)c1cc(Cl)ccc21 [Compound B45] | < 200 | 132 | > 3000 | 3220 | ≥ 2000 | 2020 | < 100 | 27.4 | – |
| CCn1cc2c(n1)c(=O)n(-c1cnccc1C)c1cc(Cl)ccc21 [Compound B51] | > 3000 | 8520 | > 3000 | > 10000 | ≥ 2000 | 7690 | < 100 | 40.8 | – |
| CCn1cc2c(n1)c(=O)n(-c1cccnc1C(F)(F)F)c1cc(Cl)ccc21 [Compound B32] | < 200 | 53.9 | 1000 to 3000 | 2260 | ≥ 2000 | 2700 | < 100 | 43.5 | – |
| Cc1ncccc1-n1c(=O)c2n[nH]cc2c2ccc(C(F)(F)F)nc21 [Compound B96] | < 200 | 5.2 | < 200 | 158 | – | – | < 100 | 29.4 | IC50 [4, 14]: < 500 nM; IC50 [4, 15]: 5.14 nM; IC50 [5, 16]: < 500 nM; IC50 [5, 17]: 293 nM; IC50 (Hut-78 cell strain; [18]): < 500 nM; IC50 (Hut-78 cell strain; [19]): 27.2 nM |
| CCn1cc2c(n1)c(=O)n(-c1cncc(F)c1)c1cc(Cl)ccc21 [Compound B14] | 1000 to 3000 | – | 1000 to 3000 | – | ≥ 2000 | 6680 | < 100 | 66.9 | – |
| CCn1cc2c(n1)c(=O)n(-c1cnccn1)c1cc(Cl)ccc21 [Compound B6] | > 3000 | 3570 | 200 to 1000 | – | ≥ 2000 | 16900 | – | – | – |
